# Reference: US6448472B1, “Genetic and epigenetic manipulation of ABC transporters and ectophosphatases for the conference of hormone and herbicide resistance” (Board of Regents, The University of Texas System, priority 1999, dated 2002)
# Where two headings read alike, the source gives them in different places.
# Experiments:
# [1] = test system: S. cerevisiae yeast cells; experiment: Yeast growth in suspension with ATP and drug selection (turbidity); type: cell-based, Saccharomyces cerevisiae; conditions: 100 mM ATP, 48 hours
# Method: Cell lines: Cell lines were the same as those described above in Example 2 and 3. YMR4 MDR1 is the phosphatase mutant yeast strain overexpressing AtPGP-1; YMR4 pVT101 contains vector alone; INVSC MDR1 is the wild-type yeast strain overexpressing AtPGP-1; and INVSC pVT101 contains vector alone.
# Selection in drug: To create drug resistant yeast strains, all four cell lines were grown up in the presence of 500 ng/ml of cycloheximide, and transferred to other cycloheximide containing plates after a period of four to six days. This transfer of cell lines and subculturing continued such that the yeast cells grew in the presence of cycloheximide for a period of at least a month.
# Cells cultured in media alone: To create cell lines that had not been preselected for their ability to grow in drug, yeast strains were grown on plates containing YNB (Bio101, Vista, Calif.) without uracil (-URA) to maintain the presence of the vector (which supplies URA) without any drugs added.
# Growth of cells in suspension for ATP and drug selection experiments: Cells were transferred into 5 ml YNB-URA liquid media for turbidity measurements. All cell lines (both non-drug selected and drug-selected) were grown in media with the addition of either nothing, 500 ng/ml cycloheximide, 100 mM ATP, or 500 ng/ml cycloheximide and 100 mM ATP. Turbidity readings were taken after 48 hours.
# [2] = test system: Arabidopsis thaliana plants; experiment: Arabidopsis germination selection assay of transgenic plants (Example 2); type: in vivo; conditions: cycloheximide 250 ng/ml
# Description: Expression of apyrase and AtPGP-1 in plants: The expression of apyrase in plants is as described above in Example 1. Similar methods were employed to express AtPGP-1 in Arabidopsis thaliana plants with the following modifications. The AtPGP-1 coding region was subcloned into a pBIN vector lacking the GUS gene as described in Sidler, et al., 1998, The Plant Cell 10:1623-1636. This plasmid was then transformed into A. tumefaciens as described above, which was used to infect root calli to produce transgenic plants expressing AtPGP-1.
# Plant growth: Arabidopsis thaliana seeds were sown in a solid germination media containing MS salt, 2% sucrose, 0.8% agar, and vitamins (Valvekens, D. et al., […], Proc. Natl. Acad. Sci. USA 85:5536-5540. For selection assays, cycloheximide was spread on the media to achieve a final concentration of 250 ng/ml. Plant growth was measured by germination percentage after 6-30 days.
# [3] = test system: yeast mutant YMR4; experiment: Yeast growth in suspension, salvage pathway experiments (adenosine, phosphate); type: cell-based, Saccharomyces cerevisiae; conditions: 72 hours; for effect of addition to the media on resistance to cycloheximide: YMR4 cells, 3 mM adenosine, potassium phosphate; for effect of addition on growth in drug: cells overexpressing AtPGP-1 grown in cycloheximide
# Method: Growth of cell lines in suspension for salvage pathway experiments: All cell lines were grown in liquid media either containing drug (for the drug selected lines) or not containing drug (for the non-drug selected lines). When the cultures reached a turbidity of 1.00 as measured at a wavelength of 600 in a spectrophotometer (OD600=1.00), 10 μl of each culture was then removed and placed in either media with nothing added, 3 mM potassium phosphate; 3 mM adenosine; 9 mM potassium phosphate and 3 mM adenosine (for controls); potassium phosphate and cycloheximide; adenosine and cycloheximide; adenosine, cycloheximide, and potassium phosphate. Cell cultures were further grown for 72 hours, and their turbidity was determined by OD600 readings on a spectrophotometer.
# [4] = test system: Arabidopsis thaliana plants; type: in vivo; conditions: after 10-20 days
# Method: Plant Growth: Arabidopsis seeds were sown in a solid germination media containing MS salts (Sigma Chemical, St. Louis, Mo.), 2% sucrose, 0.8% agar, and vitamins (Valvekens, D. et al., 1992, Proc. Natl. Acad. Sci. USA 85:5536-5540). For selection assays, one of the following, or a combination of both, Was added to media (cooled to less than 50° C. before adding) immediately prior to pouring into plates: cycloheximide at a final concentration of 500 ng/ml; α,β-methyleneadenosine 5′-diphosphate at a final concentration of 1 mM. Plant growth was measured by germination percentage after 10-20 days.
# All other materials and methods were discussed above in Example 2.
# [5] = test system: Saccharomyces cerevisiae INVSC1 and YMR4; experiment: Yeast growth selection assay on plates and in liquid media (turbidity OD600); type: cell-based; conditions: cycloheximide 500 ng/ml
# Description: Expression of AtPGP-1 in yeast: The AtPGP-1 cDNA (Arabidopsis thaliana MDR gene, accession #X61370) was subcloned into pVT101 downstream of the ADH promoter to create the AtPGP-1/pVT101 construct. AtPGP-1/pVT101 and pVT101 were transformed into Saccharomyces cerevisiae INVSC1 (genotype: MATα, his3-Δ1, leu2, trp1-289, ura3-52) and YMR4 (genotype: MATαhis3-11,15, leu2-3, 112ura3Δ5, can Res pho5, 3::ura3Δ1) by a PEG lithium acetate procedure (Eble, R., 1992, Biotechniques 13:18-20) and selected on uracil dropout medium.
# Yeast Growth: Yeast were grown at 30° C. under conditions of constant selection for uracil auxotrophy. YNB (Bio101, Vista, Calif.) supplemented with CSM (uracil dropout) and 2% glucose was used to grow strains having pVT101 constructs. Cycloheximide (Sigma Chemical, St. Louis, Mo.) was added to liquid media or spread on solid media to achieve a final concentration of 500 ng/ml. Nigericin (Sigma Chemical, St. Louis, Mo.) was added to liquid media or spread on solid media to achieve a final concentration of 25 μg/ml. Yeast strains used in cycloheximide selection assays were always propagated in the presence of the cycloheximide on plates and then streaked onto new plates containing drug or no drug, such that induced resistance existed in each strain at the time of the start of the assay. For selection assays on plates, single colonies were streaked; for selection in liquid media 0.01 ml of saturated culture was added to fresh media containing the drug. The plates shown in figures were grown for 3-5 days before photographs were taken. Yeast selection assays in liquid media were quantitated by turbidity as measured by absorbance at OD600.
# [6] = YMR4 ecto-phosphatase deficient mutant (vector alone), nigericin 25 μg/ml
# [7] = YMR4 expressing AtPGP-1, nigericin 25 μg/ml
smiles,measurement,setting,value
Nc1ncnc2c1ncn2[C@@H]1O[C@H](COP(=O)(O)OP(=O)(O)OP(=O)(O)O)[C@@H](O)[C@H]1O [ATP],growth in high levels of ATP,[1]; cells not previously selected in drug,able to grow
same,growth in high levels of ATP,"[1]; cells previously selected in cycloheximide, not overexpressing AtPGP-1",not able to grow
CC(C)=CCNc1ncnc2nc[nH]c12 [N6-(2-isopentenyl) adenine],resistance of plants to the drug (germination),[2]; plants over-expressing AtPGP-1,confer resistance
same,resistance of plants to the drug (germination),[2]; plants over-expressing apyrase,The same result was obtained
Nc1ncnc2c1ncn2[C@@H]1O[C@H](CO)[C@@H](O)[C@H]1O [adenosine],effect of addition to the media on resistance to cycloheximide,[3],did not enhance resistance
same,effect of addition on growth in drug,[3],slightly inhibitory
C[C@@H]1C[C@@H]([C@H](O)CC2CC(=O)NC(=O)C2)C(=O)[C@@H](C)C1 [cycloheximide],germination rate,[4]; AtPGP-1 overexpressing (MDR OE) plants,50%
same,germination rate,[4]; wild-type plants,2%
same,effect of AtPGP-1 on growth in the presence of drug,[5]; INVSC1 wild-type yeast with AtPGP-1,did not have any effect
same,growth in the presence of drug,[5]; INVSC1 wild-type yeast,did grow
same,growth in the presence of drug,[5]; [6],did not grow
same,growth in the presence of drug,[5]; [7],enabled the yeast mutant to grow
same,resistance of plants to the drug (germination),[2]; plants over-expressing AtPGP-1,confer resistance
same,resistance of plants to the drug (germination),[2]; plants over-expressing apyrase,conference of resistance
CO[C@@H]1C[C@@H](C[C@H]2CC[C@H](C)[C@H]([C@@H](C)C(=O)O)O2)O[C@]2(O[C@](C)([C@H]3CC[C@@](C)([C@@H]4O[C@@H]([C@H]5O[C@@](O)(CO)[C@H](C)C[C@@H]5C)C[C@@H]4C)O3)C[C@H]2C)[C@@H]1C [nigericin],growth in the presence of drug,[5]; [6],reduced growth
same,growth in the presence of drug,[5]; [7],The same result was obtained
"Nc1ncnc2c1ncn2[C@@H]1O[C@H](COP(=O)(O)CP(=O)(O)O)[C@@H](O)[C@H]1O [phosphatase inhibitor, α,β-methyleneadenosine 5′-diphosphate]",germination rate,"[4]; AtPGP-1 overexpressing (MDR OE) plants, cycloheximide 500 ng/ml, phosphatase inhibitor 1 mM",83%
same,germination rate,"[4]; wild-type plants, cycloheximide 500 ng/ml, phosphatase inhibitor 1 mM",90%
"O=P(O)(O)O [phosphate, potassium phosphate]",effect of addition to the media on resistance to cycloheximide,[3],did not enhance resistance
same,effect of addition on growth in drug,[3],slightly inhibitory
